Laboratory results published in patent publication EP2233463A1, “NEW COMPOUNDS ISOLATED FROM EXTRACT OF ANTRODIA CAMPHORATA” (Golden Biotechnology Corporation, priority 2007, dated 2009).
Values after ≈ are worked out from the molar mass of the structure shown.

Key:
Type in all cases: cell-based
[1] = test system: human lung cancer cell A549; test: Ex vivo survival assay (MTT) for anti-lung cancer effects, A549; conditions: for IC50 value lower than that of crude extracts from A. camphorata: A549, relative to crude extracts (13.21 µg/ml); for IC50 ( µg/ml ) A549: A549 cells, 48 hours incubation, MTT, 570 nm
From the text: MTT assay is commonly used to determine cell proliferation, percent of viable cells, and cytotoxicity. 3-[4,5-dimethylthiazol-2-yl]2,5-diphenyltetrazolium bromide (MTT) is a yellow dye, which can be absorbed by the living cells and be reduced to purplish blue formazan crystals by succinate tetrazolium reductase in mitochondria. Formazan formation can therefore be used to assess and determine the survival rate of cells. The NCI anti-cancer drug screen model was also employed to test the anti-lung cancer effect of the Antroquinonol B and Antroquinonol C in the present invention. The Antroquinonols isolated from example 1 were added into the culture media of human lung cancer cell A549 with the abovementioned MTT assay to analyze lung cancer cell survival rates. Human lung cancer cell A549 was obtained from the Bioresources Collection and Research Center (BCRC) of the Food Industry Research and Development Institute with an accession number of BCRC 60074. A549 cells were cultivated in media containing fetal calf serum for 24 hours. The proliferated cells were washed once with PBS, then treated with 1x trypsin-EDTA and centrifuged at 1200 rpm for 5 minutes. The supernatant was discarded and the cell pellet was resuspended in 10 ml of fresh culture medium by gently shaking. The cells were placed in a 96-well plate. Total ethanol extracts of Antrodia camphorata without purification (the control group), Antroquinonol B or Antroquinonol C (the experimental group) were added into each of the 96 wells at the following concentrations: 30, 10, 3, 1, 0.3, 0.1 and 0.03 µg/ml, respectively. The cells were incubated at 37°C in a 5% CO2 incubator for 48 hours. MTT was added in a concentration of 2.5 mg/ml into each well in dark and incubated for 4 hours, followed by the addition of 100 µl of lysis buffer to stop the reaction. The plates were read on an ELISA reader at wavelength of 570 nm to determine the survival rates. Table 2 Results of ex vivo survival assay for inhibition of lung cancer cells

[2] = test system: human hepatic-cancer cells, Hep G2; test: Ex vivo survival assay (MTT) for anti-hepatic cancer effects, Hep G2; conditions: for IC50 value lower than that of crude extracts from A. camphorata: Hep G2, relative to crude extracts (18.63 µg/ml); for IC50 ( µg/ml ) HepG2: Hep G2 cells, 48 hours incubation, MTT, 570 nm
From the text: (§1) MTT assay is commonly used to determine cell proliferation, percent of viable cells, and cytotoxicity. 3-[4,5-dimethylthiazol-2-yl]2,5-diphenyltetrazolium bromide (MTT) is a yellow dye, which can be absorbed by the living cells and be reduced to purplish blue formazan crystals by succinate tetrazolium reductase in mitochondria. Formazan formation can therefore be used to assess and determine the survival rate of cells. The NCI anti-cancer drug screen model was employed to test the anti-cancer effect of the Antroquinonol B and Antroquinono C in the present invention. The Antroquinonos isolated from example 1 were added into the culture media of human hepatic-cancer cells, Hep 3B or Hep G2, for tumor cell survival assay. Hepatic-cancer cells Hep 3B (BCRC 60434) and Hep G2 (BCRC 60025), were obtained from the Bioresources Collection and Research Center (BCRC) of the Food Industry Research and Development Institute. The human hepatic-cancer cells, Hep 3B and Hep G2, were cultivated in media containing fetal calf serum for 24 hours. The proliferated cells were washed once with PBS, then treated with 1x trypsin-EDTA and centrifuged at 1200 rpm for 5 minutes. The supernatant was discarded and the cell pellet was resuspended in 10 ml of fresh culture medium by gently shaking. The cells were placed in a 96-well plate. Total ethanol extracts of Antrodia camphorata without purification (the control group), Antroquinonol B or Antroquinonol C (the experimental group) were added into each of the 96 wells at the following concentrations: 30, 10, 3, 1, 0.3, 0.1 and 0.03 µg/ml, respectively. The cells were incubated at 37°C in a 5% CO2 incubator for 48 hours. MTT was added in a concentration of 2.5 mg/ml into each well in dark and incubated for 4 hours, followed by the addition of 100 µl of lysis buffer to stop the reaction. The plates were read on an ELISA reader at wavelength of 570 nm to determine the survival rates. Table 3 Results of ex vivo survival assay for inhibition of hepatic cancer cells

[3] = test system: human breast-cancer cells, MCF-7; test: Ex vivo survival assay (MTT) for anti-breast cancer effects, MCF-7; conditions: for IC50 value lower than that of crude extracts from A. camphorata: MCF-7, relative to crude extracts (11.13 µg/ml); for IC50(µg/ml) MCF-7: MCF-7 cells, 48 hours incubation, MTT, 570 nm
Procedure: (§2) The NCI anti-cancer drug screen model was adopted to test the anti-cancer effect of the isolated compounds from example 1 in the present invention. The isolated Antroquinonol B and Antroquinonol C from example 1 were added into the culture media of human breast-cancer cells, MCF-7 or MDA-MB-231, to test for tumor cell survival. This survival assay was carried out with the widely known MTT (3-[4,5-dimethylthiazol-2-yl]2,5-diphenyltetrazolium bromide) assay. MCF-7 cell line is originated from primary breast cancer cells (early stage), sensitive to estrogen and therefore is estrogen-dependent, while MDA-MB-231 is insensitive to estrogen and therefore is estrogen-independent, which is a difficult tumor with a low survival rate. MTT assay is commonly used to determine cell proliferation, percent of viable cells, and cytotoxicity. 3-[4,5-dimethylthiazol-2-yl]2,5-diphenyltetrazolium bromide (MTT) is a yellow dye, which can be absorbed by the living cells and be reduced to purplish blue formazan crystals by succinate tetrazolium reductase in mitochondria. Formazan formation can therefore be used to assess and determine the survival rate of cells. The human breast-cancer cells, MCF-7 (purchased from the Bioresources Collection and Research Center (BCRC) with the accession number of BCRC60436) and MDA-MB-231 (purchased from National Health Research Institutes (NHRI) with the accession number of CCRC 60425) were cultivated in media containing fetal calf serum for 24 hours. The proliferated cells were washed once with PBS, then treated with 1x trypsin-EDTA and centrifuged at 1200 rpm for 5 minutes. The supernatant was discarded and the cell pellet was resuspended in 10 ml of fresh culture medium by gently shaking. The cells were placed in a 96-well plate. Total ethanol extracts of Antrodia camphorata without purification (the control group), Antroquinonol B or Antroquinonol C (the experimental group) were added into each of the 96 wells at the following concentrations: 30, 10, 3, 1, 0.3, 0.1 and 0.03 µg/ml, respectively. The cells were incubated at 37°C in a 5% CO2 incubator for 48 hours. MTT was added in a concentration of 2.5 mg/ml into each well in dark and incubated for 4 hours, followed by the addition of 100 µl of lysis buffer to stop the reaction. The plates were read on an ELISA reader at wavelength of 570 nm to determine the survival rates. Table 1 Results of ex vivo survival assay for inhibition of breast cancer cells

[4] = test system: human hepatic-cancer cells, Hep 3B; test: Ex vivo survival assay (MTT) for anti-hepatic cancer effects, Hep 3B; conditions: for IC50 ( µg/ml ) Hep3B: Hep 3B cells, 48 hours incubation, MTT, 570 nm; for IC50 value lower than that of crude extracts from A. camphorata: Hep 3B, relative to crude extracts (5.10 µg/ml)
From the text: as §1

[5] = test system: human prostate cancer cells, DU-145; test: Ex vivo survival assay (MTT) for anti-prostate cancer effects, DU-145; conditions: for IC50 value lower than the IC50 value of the control group: DU-145, relative to control group (41.39 µg/ml); for IC50 ( µg/ml ) DU-145: DU-145 cells, 48 hours incubation, MTT, 570 nm
From the text: (§3) MTT assay is commonly used to determine cell proliferation, percent of viable cells, and cytotoxicity. 3-[4,5-dimethylthiazol-2-yl]2,5-diphenyltetrazolium bromide (MTT) is a yellow dye, which can be absorbed by the living cells and be reduced to purplish blue formazan crystals by succinate tetrazolium reductase in mitochondria. Formazan formation can therefore be used to assess and determine the survival rate of cells.
(§4) The NCI anti-cancer drug screen model was also employed to test the anti-cancer effect of the Antroquinonols in the present invention. Antroquinonol B and Antroquinonol C isolated from […] were added into the culture media of human prostate cancer cells, LNCaP or DU-145, and prostate cancer cell survival rates were analyzed with the abovementioned MTT assay. LNCaP is originated from epithelial cells of prostate gland, which depends on androgen in the early stage and thus is androgen-dependent cancer cell. […] This recurrent type prostate cancer has no effective treatment so far. Both LNCaP and DU-145 were ordered from NHRI with accession numbers of CCRC 60088 and CCRC 60348 respectively.
(§5) The human prostate-cancer cells, LNCaP and DU-145, were cultivated in media containing fetal calf serum for 24 hours. The proliferated cells were washed once with PBS, then treated with 1x trypsin-EDTA and centrifuged at 1200 rpm for 5 minutes. The supernatant was discarded and the cell pellet was resuspended in 10 ml of fresh culture medium by gently shaking. The cells were placed in a 96-well plate. Total ethanol extracts of Antrodia camphorata without purification (the control group), Antroquinonol B or Antroquinonol C (the experimental group) were added into each of the 96 wells at the following concentrations: 30, 10, 3, 1, 0.3, 0.1 and 0.03 µg/ml, respectively. The cells were incubated at 37°C in a 5% CO2 incubator for 48 hours. MTT was added in a concentration of 2.5 mg/ml into each well in dark and incubated for 4 hours, followed by the addition of 100 µl of lysis buffer to stop the reaction. The plates were read on an ELISA reader at wavelength of 570 nm to determine the survival rates. Table 4 Results of ex vivo survival assay for inhibition of prostate cancer cells

[6] = test system: human prostate cancer cells, LNCaP; test: Ex vivo survival assay (MTT) for anti-prostate cancer effects, LNCaP; conditions: for IC50 ( µg/ml ) LNCaP: LNCaP cells, 48 hours incubation, MTT, 570 nm; for IC50 value lower than the IC50 value of the control group: LNCaP, relative to control group (11.49 µg/ml)
From the text: as §3, §4, §5

[7] = test system: human breast-cancer cells, MDA-MB-231; test: Ex vivo survival assay (MTT) for anti-breast cancer effects, MDA-MB-231; conditions: for IC50 value lower than that of crude extracts from A. camphorata: MDA-MB-231, relative to crude extracts (25.81 µg/ml); for IC50(µg/ml) MDA-MB-231: MDA-MB-231 cells, 48 hours incubation, MTT, 570 nm
Procedure: as §2

Molecule | IC50 value lower than that of crude extracts from A. camphorata [1] | IC50 ( µg/ml ) A549 [1] | IC50 value lower than that of crude extracts from A. camphorata [2] | IC50 ( µg/ml ) HepG2 [2] | IC50 value lower than that of crude extracts from A. camphorata [3] | IC50(µg/ml) MCF-7 [3] | IC50 ( µg/ml ) Hep3B [4] | IC50 value lower than that of crude extracts from A. camphorata [4] | IC50 value lower than the IC50 value of the control group [5] | IC50 ( µg/ml ) DU-145 [5] | IC50 ( µg/ml ) LNCaP [6] | IC50 value lower than the IC50 value of the control group [6] | IC50 value lower than that of crude extracts from A. camphorata [7] | IC50(µg/ml) MDA-MB-231 [7]
Antroquinonol C | 37.85% | 8.21 µg/mL | 72.52% | 5.12 µg/mL | 89.49% | 1.17 µg/mL | 1.32 µg/mL | 74.12% | 70.5% | 12.21 µg/mL | 8.72 µg/mL | 24.11% | 15.15% | 21.9 µg/mL
COC1=C(OC)[C@H](O)[C@H](C/C=C(\C)CC/C=C(/C)C/C=C/C(C)(C)O)[C@@H](C)C1=O [Antroquinonol B] | 9.92% | 11.9 µg/mL (≈ 29.3 µM) | 82.18% | 3.32 µg/mL (≈ 8.17 µM) | 82.56% | 1.94 µg/mL (≈ 4.77 µM) | 1.21 µg/mL (≈ 2.98 µM) | 76.27% | 75.55% | 10.12 µg/mL (≈ 24.9 µM) | 5.67 µg/mL (≈ 13.9 µM) | 50.65% | 66.21% | 8.72 µg/mL (≈ 21.4 µM)
